# Results published in US20040259906A1, “Methods for controlling the proliferation of cells” (priority 2003, published 2004).
# “Also recorded” adds a separate entry of the source.
# Assays:
# plants = conditions: background statement; cited from earlier work
# [1] = test system: T-47D human breast ductal adenocarcinoma cells; assay: Cell growth and cell number of breast cancer cells; type: cell-based; conditions: for cell growth arrest and cell death: summary statement, dose dependent
# Protocol: (§1) In the following examples, all referenced cell lines were purchased from ATCC. T47D cells were maintained in Dulbecco's Modified Eagle medium (DMEM) (purchased from Life Technologies, Inc.) supplemented with 10% fetal calf serum (purchased from Life Technologies, Inc.), insulin (5 μg/ml), and antibiotics. CRL-5985, CRL-2632 and Raji cells were maintained in RPMI-1640 medium supplemented with 10% fetal calf serum (purchased from Life Technologies, Inc.) and antibiotics. Western blot analysis was performed by using phospho-serine 807/811-Rb, Rb, cyclin D1, cyclin D3, cdk-2, cdk-4, bcl-2, phospho-p38, bax, bak, PARP (cell signaling technology), MCL-1 (purchased from Biosource International) and beta-tubulin antibodies (purchased from Becton-Dickenson). Proteins were separated using an 8-10% SDS-polyacrylamide gel electrophoresis (SDS-PAGE), transferred to Immobilon-P membranes and immunoblotted with antibodies using the ECL detection system.
# T-47D human breast ductal adenocarcinoma cells were treated with 12-oxo-PDA and measured at three and eight-day intervals.
# (§2) Cell lines CRL-2632 (B-cell lymphoma cells), CRL-5985 (human lung adenocarcinoma cells) and T-47D (human breast ductal adenocarcinoma cells) were exposed to 12-OPDA over an eight-day period. Cell viability and cell growth were measured versus controls.
# (§3) The effects on cell growth and number for T-47D human breast cancer cells and CRL-2632 human malignant diffuse large B-cell lymphoma cells following treatment with 12-oxo-PDA and jasmonic acid (“JA”) over a four-day period were measured.
# [2] = test system: CRL-5985 human lung adenocarcinoma cells; assay: Cell growth, cell number and morphology of lung cancer cells; type: cell-based; conditions: for cell growth arrest and cell death: CRL-5985, summary statement, dose dependent
# Protocol: as §1
# CRL-5985 human lung adenocarcinoma cells were treated with 12-oxo-PDA and measured at three and eight-day intervals.
# Lung cancer cells were treated with concentrations of 12-oxo-PDA ranging from 15 μM to 50 μM (versus an untreated control sample).
# as §2
# [3] = test system: CRL-2632 human malignant diffuse large B-cell lymphoma cells; assay: Cell growth, cell number and morphology of lymphoma cells; type: cell-based; conditions: for cell growth arrest and cell death: CRL-2632, summary statement, dose dependent
# Protocol: as §1, §2, §3
# (§4) CRL-2632 diffuse large B-cell lymphoma cells (and Burkitt's lymphoma cells (“Raji”)) were treated with 12-oxo-PDA and a synthetic coronatine analog (0.5 mM).
# [4] = test system: CRL-5985 (human lung adenocarcinoma cells); assay: Cell viability, trypan blue exclusion assay; type: cell-based; conditions: CRL-5985, eight-day period, trypan blue (FIG. 5)
# Protocol: as §1, §2
# [5] = test system: T-47D (human breast ductal adenocarcinoma cells); assay: Cell viability, trypan blue exclusion assay; type: cell-based; conditions: eight-day period, trypan blue (FIG. 5)
# Protocol: as §1, §2
# [6] = test system: CRL-2632 (B-cell lymphoma cells); assay: Cell viability, trypan blue exclusion assay; type: cell-based, human; conditions: CRL-2632, eight-day period, trypan blue (FIG. 5)
# Protocol: as §1, §2
# cyclin D1 = assay: Western blot, cyclin D1 expression in T-47D cells; type: cell-based, human; conditions: 20 μM, Western blot (FIG. 9)
# Protocol: as §1
# (§5) Hyperphosphorylation of Rb is a critical process and component for regulating the cell cycle. The phosphorylation of Rb enables cells to pass through particular cell cycle checkpoints and to enter the S phase of cell cycle. […] Similarly, expression of β-tubulin and phosphorylation of p38 MAPK were unaffected.
# [7] = test system: retinoblastoma tumor suppressor protein (Rb); assay: Western blot, Rb phosphorylation in T-47D cells; type: cell-based, human; conditions: 20 μM
# Protocol: as §1, §5
# β-tubulin = assay: Western blot, β-tubulin expression in T-47D cells; type: cell-based, human; conditions: 20 μM
# Protocol: as §1, §5
# p38 MAPK = assay: Western blot, p38 MAPK phosphorylation in T-47D cells; type: cell-based, human; conditions: 20 μM
# Protocol: as §1, §5
# cyclin D1 mRNA = assay: Real-time RT-PCR in T-47D cells, cyclin D1; type: cell-based, human; conditions: 25 uM, 48 hours, relative to untreated (ethanol) cells (FIG. 10)
# Protocol: (§6) For real-time RT-PCR experiments T-47D cells were treated with ethanol (control) or with 25 uM 12-OPDA for 48 hours. Total RNA was isolated using TRIzol reagent (Invitrogen, Carlsbad, Calif.) followed by purification on RNeasy columns (Qiagen, Palo Alto, Calif.). For quantitative real-time RT-PCR analyses, total RNA from each sample was reverse transcribed with MuLV reverse transcriptase (Applied Biosystems, Foster City, Calif.) and random hexamer primers. The SYBR Green PCR Kit (Applied Biosystems) was used for quantitative real-time RT-PCR analysis. The primers for human ubuquitin, cyclin D1, p27 and c-fos were designed using Primer Express software (Applied Biosystems). 12-oxo-PDA was purchased from Larodon Fine Chemicals AB, Sweden. Jasmonic acid was purchased from Sigma-Aldrich Co. The indanoyl amino acid conjugate of coronatine (i.e., synthetic 6-azido-1-oxo-indanoyl isoleucine) was obtained from Dr. Wilhelm Boland (Max Planck Institute, Germany).
# (§7) T-47D cells were exposed to 12-oxo-PDA in an effort to determine the effect of 12-oxo-PDA on gene expression. FIGS. 10, 11 and 12 show 12-OPDA mediated regulation of cyclin D1, p27 and c-fos mRNA levels, respectively, in T-47D cells compared to ethanol treatment alone. […] Thus, it appears that 12-oxo-PDA has a direct regulatory/inhibitory effect on the cyclin D1 and Rb protein. […]
# p27 mRNA = assay: Real-time RT-PCR in T-47D cells, p27; type: cell-based, human; conditions: 25 uM, 48 hours, vs ethanol (FIG. 11)
# Protocol: as §6, §7
# C-FOS mRNA = assay: Real-time RT-PCR in T-47D cells, c-fos; type: cell-based, human; conditions: 25 uM, 48 hours, vs ethanol (FIG. 12)
# Protocol: as §6, §7
# [8] = test system: CRL-2632 diffuse large B-cell lymphoma cells; assay: Apoptosis / PARP cleavage immunoblot in CRL-2632 cells; type: cell-based, human; conditions: for growth arrest and apoptosis: CRL-2632, synthetic coronatine analog 0.5 mM (FIG. 15)
# Protocol: as §1
# Regulated cell apoptosis is essential for the development and maintenance of the immune system. The highly regulated anti-apoptotic MCL-1 protein appears to enhance short-term survival and functions in genotoxic cell death. […] Thus, deletion of MCL-1 during early lymphocyte differentiation increases apoptosis and arrests the development of B and T-lymphocytes. In this regard, one hallmark of apoptosis is activation of the caspases (e.g., caspase-3, caspase-6, and caspase-7). Activation of caspases leads to the cleavage of a […] PARP protein into an 89-kDa fragment.
# Cells were incubated in the presence of 12-oxo-PDA (20 μM) for between one and six hours. The cells were then washed and lysed to extract total proteins. Thereafter, 30 μg extracts were resolved on 8% SDS-PAGE gel and probed with anti-PARP, anti-MCL-1, anti-bcl-2, anti-bax and anti-bak antibodies. […] Similarly, FIG. 13 illustrates the effects of 12-oxo-PDA treatment on apoptosis related proteins (i.e., Bcl-2, MCL-1, Bax and Bak proteins). […]
# MCL-1 protein = assay: Immunoblot, MCL-1 expression in CRL-2632 cells; type: cell-based, human; conditions: for expression of MCL-1 protein: CRL-2632, synthetic coronatine analog 0.5 mM (FIG. 15)
# Protocol: as §1
# (§8) Cells were incubated in the presence of 12-oxo-PDA (20 μM) for between one and six hours. The cells were then washed and lysed to extract total proteins. Thereafter, 30 μg extracts were resolved on 8% SDS-PAGE gel and probed with anti-PARP, anti-MCL-1, anti-bcl-2, anti-bax and anti-bak antibodies. […] Similarly, FIG. 13 illustrates the effects of 12-oxo-PDA treatment on apoptosis related proteins (i.e., Bcl-2, MCL-1, Bax and Bak proteins).
# as §4
# Bcl-2 = assay: Immunoblot, Bcl-2 expression in CRL-2632 cells; type: cell-based, human; conditions: CRL-2632, 20 μM, one to six hours (FIG. 13)
# Protocol: as §1, §8
# Bax = assay: Immunoblot, Bax expression in CRL-2632 cells; type: cell-based, human; conditions: CRL-2632, 20 μM, one to six hours (FIG. 13)
# Protocol: as §1, §8
# Bak = assay: Immunoblot, Bak expression in CRL-2632 cells; type: cell-based, human; conditions: CRL-2632, 20 μM, one to six hours (FIG. 13)
# Protocol: as §1, §8
# [9] = test system: Burkitt's lymphoma cells (Raji); assay: Growth arrest and apoptosis in Raji cells; type: cell-based; conditions: synthetic coronatine analog 0.5 mM (FIG. 15)
# Protocol: as §1, §4
# MCL-1 = MCL-1 expression in Raji cells; type: cell-based; conditions: synthetic coronatine analog 0.5 mM (FIG. 15)
# Protocol: as §1, §4
# tubulin = assay: Tubulin polymerization in CRL-2632 cells (soluble/insoluble fractions, Western blot); type: cell-based, human; conditions: CRL-2632, 20 μM, one to six hours (FIG. 16)
# Protocol: as §1
# The increase in insoluble tubulin fractions indicates polymerization of tubulin in treated cells.
# cancer cells = assay: Observations on treated cancer cells (Oil Red O staining, removal from culture medium); type: cell-based
# Excerpt: Rather, it appears that 12-oxo-PDA (and the related compounds) irreversibly interferes with the cellular mechanisms involved in cell growth, differentiation and the interaction between the cells with the extracellular matrix.
# [10] = CRL-2632, four-day period (FIG. 8)
smiles,measurement,setting,value
CC[C@H]1C=C(C(=O)N[C@@]2(C(=O)O)C[C@@H]2CC)[C@H]2CCC(=O)[C@H]2C1 (stereo in doubt) [Coronatine],"activation of plant stress signaling (volatile emission, tendril coiling)",plants,can activate the stress signaling processes in plants
"CC/C=C\C[C@@H]1C(=O)C=C[C@@H]1CCCCCCCC(=O)O [Formula 12-oxo-PDA, 12-oxo-phytodienoic acid]",decrease in cell number,"[1]; eight-day period, vs untreated samples (FIG. 6)",three-fold
same,total cell number over treatment period,[1]; four-day period (FIG. 7),decrease in total cell count
same,cell growth arrest and cell death,[1],arrests cell growth and induces cell death
same,cell growth and accumulation,"[1]; three and eight-day intervals, vs untreated control (FIG. 1)",significant decrease in cell growth and accumulation
same,decrease in cell number,"[2]; CRL-5985, eight-day period, vs untreated samples (FIG. 6)",five-fold
same,cell growth arrest and cell death,[2],arrests cell growth and induces cell death
same,morphological changes,"[2]; CRL-5985, three and eight-day intervals (FIG. 2)",ceased three-dimensional growth patterns and became more diffuse and single layered
same,cell growth,"[2]; CRL-5985, three and eight-day intervals, vs control (FIG. 2)",significant decrease in cell growth
same,"cell growth, concentration dependence","[2]; lung cancer cells, 15 μM to 50 μM, eight days (FIG. 3)",decrease in cell growth proportional to the concentration
same,decrease in total cell number,"[3]; CRL-2632, eight-day period, vs untreated samples (FIG. 6)",ten-fold
same,total cell number over treatment period,[3]; [10],decrease in total cell count
same,cell growth arrest and cell death,[3],arrests cell growth and induces cell death
same,morphological changes,"[3]; CRL-2632, two and eight-day intervals (FIG. 4)",morphological changes
same,cell viability,[4],significant inhibitory effect
same,cell viability,[5],significant inhibitory effect
same,cell viability,[6],particularly effective
same,cyclin D1 expression,cyclin D1,inhibition of cyclin D1 expression
same,total Rb,[7]; Western blot,remained unchanged
same,Rb phosphorylation at the 807 and 811 serine residues,[7]; phospho-specific Rb antibody (FIG. 9),inhibition of the hyperphosphorylation; also recorded: dramatically inhibited
same,expression of β-tubulin,β-tubulin,unaffected
same,phosphorylation of p38 MAPK,p38 MAPK,unaffected
same,decrease in cyclin D1 mRNA levels,cyclin D1 mRNA,greater than twenty-fold
same,p27 mRNA levels,p27 mRNA,no significant changes
same,C-FOS mRNA levels,C-FOS mRNA,no significant changes
same,cleavage of PARP,"[8]; CRL-2632, 20 μM, one to six hours, immunoblot",time-dependent cleavage of PARP
same,growth arrest and apoptosis,[8],arrest growth and induce apoptosis
same,expression of MCL-1,"MCL-1 protein; CRL-2632, 20 μM, one to six hours (FIG. 13)",inhibited the expression of MCL-1
same,expression of MCL-1 protein,MCL-1 protein,down-regulated expression of MCL-1
same,expression of Bcl-2,Bcl-2,no effect
same,expression of Bax,Bax,no effect
same,expression of Bak,Bak,no effect
same,growth arrest and apoptosis,[9],arrest growth and induce apoptosis
same,expression of MCL-1,MCL-1,down-regulated expression of MCL-1
same,tubulin polymerization (soluble vs insoluble tubulin fractions),tubulin,induces tubulin polymerization
same,lipid accumulation in the cytoplasm,cancer cells; Oil Red O staining,resulted in lipid accumulation in the cytoplasm
same,cell growth after removal of compound from culture medium,cancer cells; washout,did not restore cell growth
"CC/C=C\C[C@H]1C(=O)CC[C@@H]1CC(=O)O [jasmonic acid, Jasmonic acid, reference compound]",growth inhibition relative to untreated control,[1]; four-day period (FIG. 7),some growth inhibition
same,total cell number over treatment period,[1]; four-day period (FIG. 7),net increase in total tumor cell number
same,cell growth arrest and cell death,[1],fails to be as effective
same,cell growth arrest and cell death,[2],fails to be as effective
same,growth inhibition relative to untreated control,[3]; [10],some growth inhibition
same,total cell number over treatment period,[3]; [10],net increase in total tumor cell number
same,cell growth arrest and cell death,[3],fails to be as effective
CC[C@H](C)[C@H](NC(=O)c1cc(N=[N+]=[N-])cc2c1CCC2=O)C(=O)OC [synthetic coronatine],growth of CRL-2632 cells (growth ratio over ethanol control),[3]; CRL-2632 (FIG. 14),inhibit growth
same,growth arrest and apoptosis,[8],arrest growth and induce apoptosis
same,expression of MCL-1 protein,MCL-1 protein,down regulate the expression of the MCL-1 protein
same,growth arrest and apoptosis,[9],arrest growth and induce apoptosis
same,expression of MCL-1,MCL-1,down-regulated expression of MCL-1
same,"activation of plant stress signaling (volatile emission, tendril coiling)",plants,can induce volatile emissions and/or tendril coiling
